Source: PubChem BioAssay AID248 (DTP/NCI, 2004)
“And” between values parts separate entries of the source, which are not always exact repeats. Equal entries are not always repeated. Toxic doses and inconclusive results are not listed. Cut-off read from the data, not from the text of the source: active = T/C of 150% or more; inactive = T/C below 125%.

System: L1210 leukemia ip in BDF1 mice, survival T/C
Assay: NCI In Vivo Anticancer Drug Screen. Data for tumor model L1210 Leukemia (intraperitoneal) in B6D2F1 (BDF1) mice
Conditions: endpoint: mean survival time, higher = longer survival
In short: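 Antitumor effect is assessed in tumor-bearing animals. Survival in the compound arm is compared with a vehicle-dosed control arm and expressed as their quotient.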

[1] = dose: 100.0 mg/kg/injection, schedule: Q04DX003 (ip), vehicle: Klucel (hydroxypropylcellulose) (HPC)
[2] = dose: 200.0 mg/kg/injection, schedule: Q04DX003 (ip), vehicle: Klucel (hydroxypropylcellulose) (HPC)

Measured: T/C

CC(=O)NNC(=O)c1ccccn1
inactive: dose: 4.0 mg/kg/injection, schedule: Q03HX024 (ip), vehicle: saline 109 % of control | dose: 8.0 mg/kg/injection, schedule: Q03HX008 (ip), vehicle: saline 96 % of control | dose: 8.0 mg/kg/injection, schedule: Q03HX016 (ip), vehicle: saline 111 % of control | dose: 8.0 mg/kg/injection, schedule: Q03HX024 (ip), vehicle: saline 105 % of control | dose: 16.0 mg/kg/injection, schedule: Q03HX008 (ip), vehicle: saline 105 % of control | dose: 16.0 mg/kg/injection, schedule: Q03HX016 (ip), vehicle: saline 98 % of control | dose: 16.0 mg/kg/injection, schedule: Q03HX024 (ip), vehicle: saline 104 % of control | dose: 32.0 mg/kg/injection, schedule: Q01DX009 (ip), vehicle: saline 104 % of control | dose: 32.0 mg/kg/injection, schedule: Q01DX009 (oral), vehicle: saline 102 % of control | dose: 32.0 mg/kg/injection, schedule: Q03HX008 (ip), vehicle: saline 103 % of control | dose: 32.0 mg/kg/injection, schedule: Q03HX016 (ip), vehicle: saline 104 % of control | dose: 32.0 mg/kg/injection, schedule: Q03HX024 (ip), vehicle: saline 108 % of control | dose: 32.0 mg/kg/injection, schedule: Q04DX003 (ip), vehicle: saline 108 % of control | dose: 64.0 mg/kg/injection, schedule: Q01DX001 (ip), vehicle: saline 102 % of control | dose: 64.0 mg/kg/injection, schedule: Q01DX001 (oral), vehicle: saline 106 % of control | dose: 64.0 mg/kg/injection, schedule: Q01DX009 (ip), vehicle: saline 108 % of control | dose: 64.0 mg/kg/injection, schedule: Q01DX009 (oral), vehicle: saline 114 % of control | dose: 64.0 mg/kg/injection, schedule: Q03HX008 (ip), vehicle: saline 109 % of control | dose: 64.0 mg/kg/injection, schedule: Q03HX016 (ip), vehicle: saline 111 % of control | dose: 64.0 mg/kg/injection, schedule: Q03HX024 (ip), vehicle: saline 117 % of control | dose: 64.0 mg/kg/injection, schedule: Q04DX003 (ip), vehicle: saline 100 % of control | dose: 64.0 mg/kg/injection, schedule: Q08DX002 (ip), vehicle: saline 104 % of control | dose: 75.0 mg/kg/injection, schedule: Q01DX Z (ip), vehicle: water 95 % of control and 105 % of control | dose: 100.0 mg/kg/injection, schedule: Q01DX Z (ip), vehicle: water 96 % of control and 103 % of control | dose: 128.0 mg/kg/injection, schedule: Q01DX001 (ip), vehicle: saline 100 % of control | dose: 128.0 mg/kg/injection, schedule: Q01DX001 (oral), vehicle: saline 108 % of control | dose: 128.0 mg/kg/injection, schedule: Q01DX009 (ip), vehicle: saline 124 % of control | dose: 128.0 mg/kg/injection, schedule: Q01DX009 (oral), vehicle: saline 119 % of control | dose: 128.0 mg/kg/injection, schedule: Q04DX003 (ip), vehicle: saline 103 % of control | dose: 128.0 mg/kg/injection, schedule: Q08DX002 (ip), vehicle: saline 103 % of control | dose: 150.0 mg/kg/injection, schedule: Q01DX Z (ip), vehicle: water 105 % of control and 89 % of control | dose: 256.0 mg/kg/injection, schedule: Q01DX001 (ip), vehicle: saline 109 % of control | dose: 256.0 mg/kg/injection, schedule: Q01DX001 (oral), vehicle: saline 108 % of control | dose: 256.0 mg/kg/injection, schedule: Q01DX009 (ip), vehicle: saline 103 % of control | dose: 256.0 mg/kg/injection, schedule: Q04DX003 (ip), vehicle: saline 105 % of control | dose: 256.0 mg/kg/injection, schedule: Q08DX002 (ip), vehicle: saline 109 % of control

COC(=O)c1n[nH]c(C2OCC3OC(C)(C)OC32)c1Br (stereo not given)
inactive: dose: 100.0 mg/kg/injection, schedule: Q01DX005 (ip), vehicle: saline 100 % of control | dose: 200.0 mg/kg/injection, schedule: Q01DX005 (ip), vehicle: saline 91 % of control

CCOC(OCC)c1nc(N)nc(N)c1-c1ccc(Cl)c(Cl)c1
inactive: dose: 11.0 mg/kg/injection, schedule: Q01DX009 (ip), vehicle: other 98 % of control | dose: 22.5 mg/kg/injection, schedule: Q01DX009 (ip), vehicle: other 101 % of control | dose: 45.0 mg/kg/injection, schedule: Q01DX009 (ip), vehicle: other 101 % of control | dose: 89.0 mg/kg/injection, schedule: Q01DX009 (ip), vehicle: saline 102 % of control | dose: 90.0 mg/kg/injection, schedule: Q01DX009 (ip), vehicle: other 115 % of control | dose: 100.0 mg/kg/injection, schedule: Q01DX001 (ip), vehicle: saline 100 % of control | dose: 134.0 mg/kg/injection, schedule: Q01DX009 (ip), vehicle: saline 119 % of control | dose: 200.0 mg/kg/injection, schedule: Q01DX001 (ip), vehicle: saline 107 % of control | dose: 300.0 mg/kg/injection, schedule: Q01DX009 (ip), vehicle: saline 101 % of control

CCOP(=O)(CCCCN1C(=O)c2ccccc2C1=O)OCC
inactive: dose: 31.3 mg/kg/injection, schedule: Q01DX Z (ip), vehicle: saline 101 % of control | dose: 62.5 mg/kg/injection, schedule: Q01DX Z (ip), vehicle: saline 100 % of control | dose: 125.0 mg/kg/injection, schedule: Q01DX Z (ip), vehicle: saline 103 % of control | dose: 250.0 mg/kg/injection, schedule: Q01DX Z (ip), vehicle: saline 103 % of control | dose: 500.0 mg/kg/injection, schedule: Q01DX Z (ip), vehicle: saline 92 % of control

Cc1c(CO)[nH]c(=S)[nH]c1=O
inactive: dose: 50.0 mg/kg/injection, schedule: Q01DX001 (ip), vehicle: Klucel (hydroxypropylcellulose) (HPC) 103 % of control | dose: 50.0 mg/kg/injection, schedule: Q04DX003 (ip), vehicle: Klucel (hydroxypropylcellulose) (HPC) 100 % of control | dose: 100.0 mg/kg/injection, schedule: Q01DX001 (ip), vehicle: Klucel (hydroxypropylcellulose) (HPC) 95 % of control | [1] 92 % of control | dose: 200.0 mg/kg/injection, schedule: Q01DX001 (ip), vehicle: Klucel (hydroxypropylcellulose) (HPC) 97 % of control | [2] 89 % of control

OC1COC(O)C(O)C1O (stereo not given)
inactive: dose: 100.0 mg/kg/injection, schedule: Q01DX009 (ip), vehicle: saline 98 % of control | dose: 100.0 mg/kg/injection, schedule: Q04DX003 (ip), vehicle: saline 104 % of control | dose: 200.0 mg/kg/injection, schedule: Q01DX009 (ip), vehicle: saline 103 % of control | dose: 200.0 mg/kg/injection, schedule: Q04DX003 (ip), vehicle: saline 111 % of control | dose: 250.0 mg/kg/injection, schedule: Q04DX003 (ip), vehicle: saline 93 % of control | dose: 400.0 mg/kg/injection, schedule: Q01DX009 (ip), vehicle: saline 104 % of control | dose: 400.0 mg/kg/injection, schedule: Q04DX003 (ip), vehicle: saline 104 % of control | dose: 500.0 mg/kg/injection, schedule: Q04DX003 (ip), vehicle: saline 96 % of control | dose: 1000.0 mg/kg/injection, schedule: Q04DX003 (ip), vehicle: saline 102 % of control | dose: 2000.0 mg/kg/injection, schedule: Q04DX003 (ip), vehicle: saline 91 % of control

CCCCCCCCCCCCCCCCCCNC(=O)N1CCC(C)CC1
inactive: dose: 100.0 mg/kg/injection, schedule: Q04DX002 (ip), vehicle: Klucel (hydroxypropylcellulose) (HPC) 97 % of control | dose: 200.0 mg/kg/injection, schedule: Q04DX002 (ip), vehicle: Klucel (hydroxypropylcellulose) (HPC) 100 % of control | dose: 400.0 mg/kg/injection, schedule: Q04DX002 (ip), vehicle: Klucel (hydroxypropylcellulose) (HPC) 97 % of control

CC(C)=CCc1ccc(O)cc1
inactive: dose: 100.0 mg/kg/injection, schedule: Q01DX009 (ip), vehicle: saline + alcohol 95 % of control | [1] 96 % of control | [2] 100 % of control | dose: 400.0 mg/kg/injection, schedule: Q04DX003 (ip), vehicle: Klucel (hydroxypropylcellulose) (HPC) 95 % of control
